Results taken from ChEMBL document CHEMBL1149731, “Aflavarin and -Aflatrem: New Anti-Insectan Metabolites from the Sclerotia of Aspergillus flavus” (1992).
Converted amounts (≈) assume the structure as drawn. The source made the active and inactive calls. The calls are words filed in the database; no cut-off is given here.

Assays:
Helicoverpa zea = test: Insecticidal activity against Helicoverpa zea assessed as reduction in growth rate; format: functional, organism-based
Carpophilus [1] = test: Antiinsectan activity against Carpophilus hemipterus larvae assessed as feeding reduction at 100 ppm administered through test diet relative to control; format: functional
Carpophilus [2] = test: Antiinsectan activity against adult Carpophilus hemipterus assessed as feeding reduction at 100 ppm administered through test diet relative to control; format: functional
Candida albicans = test: Antifungal activity against Candida albicans at 100 ug/disk by standard disk assay; format: functional, organism-based
Staphylococcus aureus = test: Antibacterial activity against Staphylococcus aureus at 100 ug/disk by standard disk assay; format: functional, organism-based
A549 = test: Cytotoxicity against human A549 cells; format: functional; details: read-out: ED50 (the source's name)
MCF7 = test: Cytotoxicity against human MCF7 cells; format: functional; details: read-out: ED50 (the source's name)
Carpophilus [3] = test: Insecticidal activity against Carpophilus hemipterus; format: functional, organism-based
Bacillus subtilis = test: Antibacterial activity against Bacillus subtilis at 100 ug/disk by standard disk assay; format: functional, organism-based
HT-29 = test: Cytotoxicity against human HT-29 cells; format: functional; details: read-out: ED50 (the source's name)

Structure (SMILES) | Activity (Helicoverpa zea) | Activity (Carpophilus [1]) | Activity (Carpophilus [2]) | Activity (Candida albicans) | Activity (Staphylococcus aureus) | EC50 (A549) [µg/mL] | EC50 (MCF7) [µg/mL] | Activity (Carpophilus [3]) | Activity (Bacillus subtilis) | EC50 (HT-29) [µg/mL]
C=CC(C)(C)c1ccc2[nH]c3c(c2c1)C[C@@H]1CC[C@@]2(O)C4=CC(=O)[C@@H]5O[C@]4(CC[C@]2(C)[C@@]31C)OC5(C)C | Active | – | – | – | – | – | – | – | – | –
COc1cc(C)c2c(OC)cc(=O)oc2c1-c1c(O)cc(C)c2c(OC)cc(=O)oc12 | – | inactive | inactive | – | – | – | – | – | – | –
COc1cc(CO)c2c(OC)c(-c3c(OC)cc(C)c4c(OC)cc(=O)oc34)c(=O)oc2c1 [AFLAVARIN] | – | 53% | 66% | inactive | inactive | 7.5 (≈ 16.5 µM) | 55 (≈ 121 µM) | Active | inactive | 5.8 (≈ 12.8 µM)
